Measurements: patent publication US20190008160A1, “BACILLUS THURINGIENSIS SUBSP. KURSTAKI AND BACILLUS THURINGIENSIS SUBSP. AIZAWAI COMBINATION FORMULATIONS” (Valent BioSciences Corporation, priority 2015, published 2019)

Tests used:
[1] = system: insect species with known resistance to chlorantraniliprole; test: Example 6 plot study, yield with insect species resistant to chlorantraniliprole; type: in vivo; conditions: rate 30.9 g a.i/ha
Method: (§1) A study was conducted to determine the effect that a synergistic weight ratio of Bacillus thuringiensis subsp. kurstaki and Bacillus thuringiensis subsp. aizawai would have on insect species with known resistance to the commonly used insecticide, chlorantraniliprole. Prevathon™ (available from DuPont™) is a 5% suspension concentrate of chlorantraniliprole and was used as the source of chlorantraniliprole in the following two studies. Sympatico™ emulsifiable suspension concentrate (available from Valent BioSciences Corporation) was used as the source of Bacillus thuringiensis subsp. aizawai and Bacillus thuringiensis kurstaki. Sympatico™ contains about a 60:40 weight ratio of Bacillus thuringiensis subsp. kurstaki fermentation solids, spores and toxins to Bacillus thuringiensis subsp. aizawai fermentation solids, spores and toxins. The plots were planted with cabbage and naturally infested with populations of diamondback moth (Plutella xylostella) and cabbage cluster caterpillar (Crocidolomia pavonana) that were known to be resistant to chlorantraniliprole.
Another study was conducted to determine the effect that a synergistic weight ratio of Bacillus thuringiensis subsp. kurstaki and Bacillus thuringiensis subsp. aizawai would have on insect species with known resistance to the commonly used insecticide, chlorantraniliprole.

[2] = system: diamondback moth (Plutella xylostella) and cabbage cluster caterpillar (Crocidolomia pavonana) known to be resistant to chlorantraniliprole; test: Example 5 cabbage plot study, yield under chlorantraniliprole-resistant pest infestation; type: in vivo, Plutella xylostella; Crocidolomia pavonana (on cabbage); conditions: rate 30.9 g/ha; cabbage plots
Method: as §1

CNC(=O)c1cc(Cl)cc(C)c1NC(=O)c1cc(Br)nn1-c1ncccc1Cl [Chlorantraniliprole]
Yield [1]: 88.3 kg/plot | Yield [2]: 67.0 kg/plot
